Among the data in US20210403435A1, “HERBICIDAL COMPOUNDS” (SYNGENTA CROP PROTECTION AG, priority 2018, published 2021) are pest or weed control values, retold here.

Molecules are shown by their SMILES.

Common to all, as to experiment: Post-emergence efficacy, glasshouse, evaluated after 13 days
Holding throughout (assay type): in vivo

The test system of assay [1] is Amaranthus palmeri (AMAPA). The settings on record: Amaranthus palmeri, 312 h; post-emergence application, 500 g/Ha, evaluated after 13 days; read-out: Control of weed species AMAPA (100=total damage to plant; 0=no damage to plant). A digest of the protocol:
(§1)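 Damage was rated visually 13 days after treatment on a 0–100 scale, where 100 meant total damage. Plants had been raised for 14 days in soil under glasshouse conditions (24/16 °C, 14 h light, 65% humidity) before spraying with an aqueous dilution of an IF50-based formulation.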

The subject of assay [2] is Chenopodium album (CHEAL). As to conditions: Chenopodium album, 312 h; post-emergence application, 500 g/Ha, evaluated after 13 days; read-out: Control of weed species CHEAL (100=total damage to plant; 0=no damage to plant). A digest of the protocol:
as §1

The subject of assay [3] is Digitaria sanguinalis (DIGSA). As to conditions: Digitaria sanguinalis, 312 h; post-emergence application, 500 g/Ha, evaluated after 13 days; read-out: Control of weed species DIGSA (100=total damage to plant; 0=no damage to plant). In short, it runs like this:
as §1

In assay [4] the test system is Echinochloa crus-galli (ECHCG). As to conditions: Echinochloa crus-galli, 312 h; post-emergence application, 500 g/Ha, evaluated after 13 days; read-out: Control of weed species ECHCG (100=total damage to plant; 0=no damage to plant). In short, it runs like this: as §1
Assay [5] deals with Eleusine indica (ELEIN). As to conditions: Eleusine indica, 312 h; post-emergence application, 500 g/Ha, evaluated after 13 days; read-out: Control of weed species ELEIN (100=total damage to plant; 0=no damage to plant). In short, it runs like this:
as §1

Assay [6] relates to Euphorbia heterophylla (EPHHL). The settings on record: Euphorbia heterophylla, 312 h; post-emergence application, 500 g/Ha, evaluated after 13 days; read-out: Control of weed species EPHHL (100=total damage to plant; 0=no damage to plant). In short, it runs like this: as §1
Assay [7] has as its system Ipomoea hederacea (IPOHE). As to conditions: Ipomoea hederacea, 312 h; post-emergence application, 500 g/Ha, evaluated after 13 days; read-out: Control of weed species IPOHE (100=total damage to plant; 0=no damage to plant). A digest of the protocol:
as §1

For assay [8], the system named is Lolium perenne (LOLPE). The settings on record: Lolium perenne, 312 h; post-emergence application, 500 g/Ha, evaluated after 13 days; read-out: Control of weed species LOLPE (100=total damage to plant; 0=no damage to plant). A digest of the protocol: as §1
Assay [9] has as its system Setaria faberi (SETFA). As to conditions: Setaria faberi, 312 h; post-emergence application, 500 g/Ha, evaluated after 13 days; read-out: Control of weed species SETFA (100=total damage to plant; 0=no damage to plant). In short, it runs like this: as §1

Consider `CN(C)S(=O)(=O)CCNC(=O)c1cc[n+](CCC(=O)O)nc1` [Compound A110], for which the pest or weed control at 500 g/ha in [1] is 90%; in assay [2], 50%; in [3] it was 100%; in [4], 50%; in assay [5], 30%; in assay [6], 60%. For the same compound, the pest or weed control at 500 g/ha in assay [7] stood at 20%; in assay [8], 60%; in [9], 90%.
`CNS(=O)(=O)CCNC(=O)c1cc[n+](CCC(=O)O)nc1` [Compound A111]: the pest or weed control at 500 g/ha was 100% in assay [1]; 90% in [2]; 100% in [3]; 90% in [4]; 100% in [5]; 90% in [6]. The figures for the pest or weed control at 500 g/ha in assay [7], in assay [8] and in assay [9] were 40%, 70% and 100%, respectively.
Turning to `O=C(O)CC[n+]1ccc(C(=O)N2CCSCC2)cn1` [Compound A112], the pest or weed control at 500 g/ha was found to be 100% in assay [1]; 90% in [2]; 100% in assay [3]; 40% in [4]; 70% in assay [5]; 90% in assay [6]. In addition, the pest or weed control at 500 g/ha in assay [7] was determined as 50%; in assay [8], 30%; in [9], 90%.
For `N#CCCNC(=O)c1cc[n+](CCC(=O)O)nc1` [Compound A113], the pest or weed control at 500 g/ha was 100% in assay [1]; 80% in [2]; 100% in assay [3]; 90% in [4]; 100% in assay [5]; 90% in assay [6]. Besides, the pest or weed control at 500 g/ha in assay [7] stood at 30%; in assay [8], 90%; in assay [9], 100%.
With `C#CCCNC(=O)c1cc[n+](CCC(=O)O)nc1` [Compound A114], the pest or weed control at 500 g/ha was 100% in assay [1]; 90% in [2]; 100% in assay [3]; 90% in assay [4]; 100% in assay [5]; 80% in assay [6]. The pest or weed control at 500 g/ha in assay [7] is 60%; in assay [8], 80%; in assay [9], 100%.
For `O=C(O)CC[n+]1ccc(C(=O)NCc2ccccn2)cn1` [Compound A115], the pest or weed control at 500 g/ha in [1] turned out to be 100%; in assay [2], 70%; in assay [3] it was 70%; in assay [4] it was 70%; in assay [5], 100%; in assay [6], 70%. Besides, the pest or weed control at 500 g/ha in assay [7] amounted to 20%; in assay [8], 70%; in assay [9] it was 70%.
For `Cn1nccc1NC(=O)c1cc[n+](CCC(=O)O)nc1` [Compound A116], the pest or weed control at 500 g/ha was 40% in [1]; 20% in [2]; 60% in assay [3]; 40% in [4]; 40% in assay [5]; 50% in [6]. In addition, the values for the pest or weed control at 500 g/ha in [7], in [8] and in assay [9] were 10%, 10% and 40%, respectively.
With `CC[S+]([O-])CCNC(=O)c1cc[n+](CCC(=O)O)nc1` (stereo not drawn) [Compound A117], the pest or weed control at 500 g/ha in assay [1] came to 100%; in assay [2], 80%; in assay [3], 100%; in assay [4], 60%; in assay [5], 50%; in [6], 90%. The pest or weed control at 500 g/ha in [7] turned out to be 40%; in assay [8], 50%; in assay [9], 90%.
For the compound `CCS(=O)(=O)CCNC(=O)c1cc[n+](CCC(=O)O)nc1` [Compound A118], the pest or weed control at 500 g/ha in assay [1] came out at 100%; in [2], 100%; in assay [3], 100%; in assay [4], 40%; in assay [5], 50%; in [6] it was 90%. In addition, the pest or weed control at 500 g/ha in assay [7] amounted to 40%; in assay [8], 50%; in [9], 90%.
With `CCSCCNC(=O)c1cc[n+](CCC(=O)O)nc1` [Compound A120], the pest or weed control at 500 g/ha worked out at 100% in assay [1]; 80% in assay [2]; 100% in assay [3]; 50% in assay [4]; 50% in [5]; 90% in assay [6]. Also, the pest or weed control at 500 g/ha in assay [7] is 10%; in [8], 40%; in [9], 70%.
For `CC(CS(C)(=O)=O)NC(=O)c1cc[n+](CCC(=O)O)nc1` (stereo not drawn) [Compound A122], the pest or weed control at 500 g/ha in assay [1] turned out to be 100%; in assay [2], 90%; in [3], 100%; in assay [4] it was 90%; in assay [5] it was 70%; in [6] it was 70%. Also, the pest or weed control at 500 g/ha in assay [7], in assay [8] and in assay [9] was 60% throughout.
Turning to `CC(CO)NC(=O)c1cc[n+](CCC(=O)O)nc1` (stereo not drawn) [Compound A123], the pest or weed control at 500 g/ha in assay [1] stood at 100%; in [2], 90%; in assay [3], 100%; in [4], 90%; in assay [5], 100%; in assay [6], 90%. For the same compound, the pest or weed control at 500 g/ha in assay [7] came out at 50%; in [8] it was 50%; in [9] it was 100%.
Regarding `O=C(O)CC[n+]1ccc(C(=O)Nc2cnccn2)cn1` [Compound A124], the pest or weed control at 500 g/ha in [1] turned out to be 20%; in assay [2], 30%; in [3], 70%; in assay [4] it was 60%; in assay [5], 30%; in [6] it was 30%. Also, the pest or weed control at 500 g/ha in assay [7] stood at 20%; in [8], 10%; in assay [9] it was 70%.
Turning to `C=CCNC(=O)c1cc[n+](CCCOS(=O)(=O)[O-])nc1` [Compound A125], the pest or weed control at 500 g/ha came out at 30% in assay [1]; 60% in assay [2]; 60% in assay [3]; 70% in assay [4]; 30% in assay [5]; 60% in assay [6]. The pest or weed control at 500 g/ha worked out at 50% in [7], 60% in assay [8] and 50% in [9].
Regarding `O=C(NC1CC1)c1cc[n+](CCCOS(=O)(=O)[O-])nc1` [Compound A126], the pest or weed control at 500 g/ha in [1] amounted to 10%; in assay [2], 60%; in assay [3], 40%; in [4] it was 60%; in assay [5], 40%; in [6] it was 60%. Further, the pest or weed control at 500 g/ha in [7] came to 50%; in assay [8], 50%; in assay [9], 70%.
